Measurements: patent US10473647B1, “Peptides for use in treatment and diagnosis of type 1 diabetes” (ImmusanT, Inc., priority 2014, dated 2019)

Experiments:
Type in all cases: cell-based, human
[1] = system: CD8+ T cell depleted blood; assay: Whole blood cytokine assay, IP-10, CD8+ T cell depleted blood (Example 2); details: T1D Subjects (n of 6), 24 h, peptides 20 ug/mL, pools 4 ug/mL, NEX-01/Nexgen POOL 25 uM, CEFT 1 ug/mL
Method: (§1) Depletion of human CD4+ and CD8+ T cells directly from whole blood, using CD4 and CD8 Dynabeads respectively (Dynabeads Human CD4, Life Technologies, #11145D; Dynabeads Human CD8, Life Technologies, #11145D), was done according to the manufacturer's protocol. Briefly, the Dynabeads were resuspended and the desired volume was transferred to a 15 Ml tube. The calculation of the volume of beads added to whole blood was 2×10^6 CD4 beads (25 μL) and 4×10^6 CD8 beads (50 μL) per Ml of whole blood. The beads were first washed with 3 Ml PBS, vortexed and placed on the magnet for 1 minute. Supernatant was discarded and beads were removed from the magnet. Whole blood was then added to the beads at the volume calculated for the concentration of beads in the tubes. The tubes containing whole blood and Dynabeads were then incubated 45 minutes at 4° C. on a continuous rocker.
(§2) Tubes were then placed into the magnet for 2 minutes. The whole blood supernatant was then transferred to a new tube for use in 24-hour Whole Blood Assay or for Flow Cytometric Analysis. Magnetic beads were discarded.
(§3) The depleted blood as well as the remaining undepleted whole blood was then utilized in whole blood cytokine release assays. T-cell cytokine responses were assessed for reactivity to pools of 17mer peptides encompassing all unique 12mer amino-acid sequences derived from pancreatic islet antigens commonly recognized by autoantibodies in T1D: insulin, glutamic decarboxylase-65 (GAD65), and insulinoma-associated antigen (IA)-2 as provided in Table 13A and Table 13B.
(§4) Fresh heparinized blood was incubated with peptide. Concentrations of individual islet-autoantigen peptides were 20 μg/mL and constituent peptides in islet-autoantigen pools were 4 ug/mL. Control MHC class II peptide mix CEFT was used at 1 μg/mL. Gliadin peptide pools were added to whole blood assays at 25 μM. Whole blood assays were incubated for 24 h at 37° C. in 5% CO2. Plasma was separated from blood after centrifugation at 500×g for 10 minutes at room temperature and then transferred to a corresponding well in a “mirror image” sterile 96-well plate. and frozen at −80° C. until use. Multiplex bead-based cytokine assays (MAGPix) were performed according to manufacturer's instructions on thawed plasma. Concentrations of interferon (IFN)-γ-induced protein-10 (IP-10), interleukin (IL)-2 and IFN-γ. Table 14 is a summary of the results for the whole blood cytokine assays which expresses the data in the number of subjects that are positive for ≥1.25 fold production of cytokine over cells incubated with medium only (background).

[2] = system: CD4+ T cell depleted blood; assay: Whole blood cytokine assay, IFNg, CD4+ T cell depleted blood (Example 2); details: T1D Subjects (n of 6), 24 h, peptides 20 ug/mL, pools 4 ug/mL, NEX-01/Nexgen POOL 25 uM, CEFT 1 ug/mL
Method: as §1, §2, §3, §4

[3] = system: CD4+ T cell depleted blood; assay: Whole blood cytokine assay, IP-10, CD4+ T cell depleted blood (Example 2); details: T1D Subjects (n of 6), 24 h, peptides 20 ug/mL, pools 4 ug/mL, NEX-01/Nexgen POOL 25 uM, CEFT 1 ug/mL
Method: as §1, §2, §3, §4

[4] = system: undepleted whole blood; assay: Whole blood cytokine assay, IP-10, undepleted blood, number of subjects with >=1.25 fold over medium (Example 2); details: 24 h, peptides 20 ug/mL, pools 4 ug/mL, NEX-01/Nexgen POOL 25 uM, CEFT 1 ug/mL
Method: as §3, §4

[5] = system: CD8+ T cell depleted blood; assay: Whole blood cytokine assay, IFNg, CD8+ T cell depleted blood (Example 2); details: T1D Subjects (n of 6), 24 h, peptides 20 ug/mL, pools 4 ug/mL, NEX-01/Nexgen POOL 25 uM, CEFT 1 ug/mL
Method: as §1, §2, §3, §4

[6] = system: CD8+ T cell depleted blood; assay: Whole blood cytokine assay, IL-2, CD8+ T cell depleted blood (Example 2); details: T1D Subjects (n of 6), 24 h, peptides 20 ug/mL, pools 4 ug/mL, NEX-01/Nexgen POOL 25 uM, CEFT 1 ug/mL
Method: as §1, §2, §3, §4

[7] = system: undepleted whole blood; assay: Whole blood cytokine assay, IL-2, undepleted blood, number of subjects with >=1.25 fold over medium (Example 2); details: 24 h, peptides 20 ug/mL, pools 4 ug/mL, NEX-01/Nexgen POOL 25 uM, CEFT 1 ug/mL
Method: as §3, §4

[8] = system: undepleted whole blood; assay: Whole blood cytokine assay, IFNg, undepleted blood, number of subjects with >=1.25 fold over medium (Example 2); details: 24 h, peptides 20 ug/mL, pools 4 ug/mL, NEX-01/Nexgen POOL 25 uM, CEFT 1 ug/mL
Method: as §3, §4

[9] = system: whole blood from subjects with Type 1 Diabetes; assay: Whole blood IP-10 release assay, fine mapping of preproinsulin epitope (Example 3); details: peptide 10 μM; average of 4 subjects with T1D; FIG. 1A-1C
Excerpt: The leader sequence of the preproinsulin epitope was fine mapped with lys-substituted peptides and C- and N-terminal truncations. […] Without wishing to be bound by any theory, a therapeutic and/or diagnostic peptide in accordance with the present disclosure may be selected to avoid CD8 activity but ensure that CD4 T cells were targeted. The data are the averages of 4 subjects whole blood IP-10 release measured as fold change over medium alone without peptide.
Whole blood was collected from 4 subjects with Type 1 Diabetes aged between 29 and 45-years old. […] In whole blood assays using fresh heparinized blood incubated with peptide (final concentration 10 μM) in phosphate buffered saline (PBS) and DMSO in 96-well round-bottom plates. Peptides (purity by LC-MS >80%) were truncations or lysine-substituted variants of a sequence in preproinsulin shown to be immunogenic in previous studies comparing peptides spanning this polypeptide. […] Assay plates were run on the Luminex MAGPIX magnetic plate reader. The upper limit of quantitation is 10,000 pg/mL and the lower limit of detection is 3.2 pg/mL. The Fold Change of cytokine concentrations from incubations with individual peptides was calculated by dividing the cytokine concentration from the individual peptide incubations by the cytokine concentration of incubations with PBS and DMSO (NIL) on the same assay plates. […]

[10] = system: whole blood from subjects with T1D and Celiac disease; assay: Whole blood cytokine release assay, IL-2 (MAGPIX), Example 1; details: individual 17mer 20 μg/mL, blood 6 days after commencing oral gluten challenge
[11] = system: whole blood from subjects with T1D and Celiac disease; assay: Whole blood cytokine release assay, IP-10 (MAGPIX), Example 1; details: individual 17mer 20 μg/mL, blood 6 days after commencing oral gluten challenge
[12] = system: whole blood from subjects with T1D and Celiac disease; assay: Whole blood cytokine release assay, IFN-γ (MAGPIX), Example 1; details: individual 17mer 20 μg/mL, blood 6 days after commencing oral gluten challenge
[13] = Healthy Subjects (n of 4), whole blood
[14] = T1D Subjects (n of 6), Undepleted WB

In the case of L2P1, 049 (FNQLSTGLDMVGLAADW), the “Fold Change IP-10, number of subjects positive for ≥1.25 fold production of cytokine over medium only” value (“Fold Change IP-10, number” below) [1] is reported as 2/6, the “Fold Change IFNg, number of subjects positive for ≥1.25 fold production of cytokine over medium only” value (“Fold Change IFNg, number” for short) [2] is reported as 1/6 and the “Fold Change IP-10, number” value [3] is reported as 2/6.

For L2P1, 051 (NMFTYEIAPVFVLLEYV), the “Fold Change IP-10, number” value [4, 13] was 3/4, the “Fold Change IP-10, number” value [4, 14] was 4/6 and the “Fold Change IP-10, number” value [1] was 5/6. The “Fold Change IFNg, number” value [5] was 2/6, the “Fold Change IFNg, number” value [2] was 1/6 and the “Fold Change IL-2, number of subjects positive for ≥1.25 fold production of cytokine over medium only” value (“Fold Change IL-2, number” for short) [6] was 2/6. For the same substance, the “Fold Change IL-2, number” value [7, 14] was 1/6 and the “Fold Change IP-10, number” value [3] was 3/6.

In the case of L3P1, 007 (SPLQAELLPPLLEHLLL), the “Fold Change IP-10, number” value [4, 13] is reported as 2/4, the “Fold Change IP-10, number” value [1] is reported as 1/6 and the “Fold Change IFNg, number” value [2] is reported as 1/6.

For L3P1, 046 (PKAARPPVTPVLLEKKS), the “Fold Change IP-10, number” value [4, 13] was 1/4, the “Fold Change IP-10, number” value [4, 14] was 1/6 and the “Fold Change IP-10, number” value [1] was 2/6.

In the case of L3P2, 076 (GRTGTYILIDMVLNRMA), the “Fold Change IP-10, number” value [4, 13] is reported as 3/4, the “Fold Change IP-10, number” value [4, 14] is reported as 6/6 and the “Fold Change IFNg, number” value [8, 13] is reported as 1/4. The “Fold Change IFNg, number” value [8, 14] was 4/6, the “Fold Change IP-10, number” value [1] was 5/6 and the “Fold Change IFNg, number” value [5] was 5/6. The “Fold Change IL-2, number” value [6] was 6/6, the “Fold Change IL-2, number” value [7, 13] was 1/4 and the “Fold Change IL-2, number” value [7, 14] was 5/6. For the same substance, the “Fold Change IP-10, number” value [3] was 3/6.

With LLALLALWGPD [SEQ ID NO: 14] the “bioactivity in whole blood IP-10 release assay (fold change over medium alone), in words” value [9] was “compatible with an epitope for CD4 T cells”.

In the case of YTPKTRREAEDLQVGQV [SEQ ID NO: 55], the IL-2 fold-change ([10]; Subject 1) is reported as 1.00, the “IL-2 fold-change (preproinsulin peptides)” value ([10]; Subject 1) is reported as 1.00 fold and the IL-2 fold-change ([10]; Subject 2) is reported as 1.00. For the same substance, the “IL-2 fold-change (preproinsulin peptides)” value ([10]; Subject 2) was 1.00 fold, the IL-2 fold-change ([10]; Subject 6) was 1.04 and the “IL-2 fold-change (preproinsulin peptides)” value ([10]; Subject 6) was 1.04 fold. For the same substance, the IL-2 fold-change ([10]; Subject 7) was 8.00, the “IL-2 fold-change (preproinsulin peptides)” value ([10]; Subject 7) was 8.00 fold and the IP-10 fold-change ([11]; Subject 1) was 1.06. For the same substance, the “IP-10 fold-change (preproinsulin peptides)” value ([11]; Subject 1) was 1.06 fold, the IP-10 fold-change ([11]; Subject 2) was 1.22 and the “IP-10 fold-change (preproinsulin peptides)” value ([11]; Subject 2) was 1.22 fold. For the same substance, the IP-10 fold-change ([11]; Subject 6) was 1.56, the “IP-10 fold-change (preproinsulin peptides)” value ([11]; Subject 6) was 1.56 fold and the IP-10 fold-change ([11]; Subject 7) was 1.42. For the same substance, the “IP-10 fold-change (preproinsulin peptides)” value ([11]; Subject 7) was 1.42 fold, the IFN-g fold-change ([12]; Subject 1) was 0.51 and the “IFN-g fold-change (preproinsulin peptides)” value ([12]; Subject 1) was 0.51 fold. For the same substance, the IFN-g fold-change ([12]; Subject 2) was 0.82, the “IFN-g fold-change (preproinsulin peptides)” value ([12]; Subject 2) was 0.82 fold and the IFN-g fold-change ([12]; Subject 6) was 1.00. For the same substance, the “IFN-g fold-change (preproinsulin peptides)” value ([12]; Subject 6) was 1.00 fold, the IFN-g fold-change ([12]; Subject 7) was 1.86 and the “IFN-g fold-change (preproinsulin peptides)” value ([12]; Subject 7) was 1.86 fold.
